From patent publication US5071988A, “Substituted benzoylbenzene-, biphenyl- and 2-oxazole-alkanoic acid derivatives” (American Home Products Corporation, priority 1991, dated 1991) come the findings set out here.

One test has as its system LTB4. Put plainly: reverse passive Arthus pleurisy assay, LTB4. It counts as in vivo, rat (male Lewis). The following applies: for ED50: Rattus norvegicus. The procedure: (§1) The compounds of the invention are further tested in the reverse passive Arthus pleurisy assay to evaluate their effectiveness in inflammatory mediator release and/or the fluid and cellular phases of an inflammatory response.
(§2) A reverse passive Arthus reaction is induced in the pleural cavity of male Lewis rats (150-200 g; fasted overnight prior to use) by the intravenous administration of bovine serum albumin (BSA; 4 mg/0.2 ml) followed by 30 minutes later by the injection of rabbit anti-BSA (1 mg/0.2 ml; lyophilized IgG fraction; Organon Teknika, West Chester, Pa.) into the right pleural space under halothane anesthesia. Drugs or vehicle (0.5% Tween-80) control are administered orally in a volume of 1 ml/100 g body weight at 1 hour prior to the anti-BSA. Animals are sacrificed at either the time of peak eicosanoid production (i.e. 5 minutes after anti-BSA for immunoreactive TxB2 10 minutes for immunoreactive LTB4, 20 minutes for immunoreactive LTC4) or at the time of peak neutrophil infiltration (4 hours after anti-BSA) by CO2 inhalation. The pleural cavity is then exposed, the fluid exudate removed by gentle vacuum aspiration and the volume of exudate is recorded. For the determination of cellular infiltration, the pleural cavity is rinsed with 3 ml of 0.1% EDTA in sterile saline, and the recovered wash is pooled with the exudate. Cell number is determined on a model ZBI Coulter counter. For determination of eicosanoid production, undiluted pleural exudate is microfuged and the supernatant is extracted with ethanol (8-10 times volume). Extracts are either stored at -20° C., or are evaporated to dryness under a stream of N2 and reconstituted in radioimmunoassay (RIA) buffer.
(§3) Eicosanoids are quantitated by RIA according to the procedure specified by the RIA kit manufacturer (Advanced Magnetics, Cambridge, Mass.). Briefly, 100 μl of ^3 H-labeled eicosanoid and 100 μl of specific antibody are sequentially added to 100 μl of extracted pleural exudate in BGG -phosphate buffer which contains 0.01M phosphate, 0.1% bovine gamma globulin and 0.1% sodium azide at pH 7.0. Antibody-bound eicosanoid is separated from unbound eicosanoid by the addition of 750 μl of dextran (0.4%)-coated charcoal (0.4% Norit A) containing 0.1% sodium azide. The mixture is centrifuged at 2000 RPM at 5° C. for 15 minutes to pellet the charcoal and adsorbed unbound eicosanoid. Antibody-bound labeled eicosanoid is quantitated by counting in a liquid scintillation counter, and is correlated to concentration by a standard curve.
(§4) Inflammatory cells are expressed as 10^6 cells/ml, pleural exudate is expressed as ml of fluid, and the amount of eicosanoids in the pleural cavity is expressed as ng/ml of exudate. Mean±S.E.M. is determined for each group. Percent inhibition (% I) of cell number, exudate volume and eicosanoid production is calculated for vehicle-treated control groups, and the responses in drug-treated rats are then expressed as the mean % I of the control. […] Exp. Ther., 96, 99-113 (1949).

For another test, the system named is TxB2. In words: reverse passive Arthus pleurisy assay, TxB2. Type of test: in vivo, rat (male Lewis). The following applies: for ED50 TxB2 / ED50: 5 min; for ED50: Rattus norvegicus, po, read-out: ED50 TxB2. The procedure: as §1, §2, §3, §4
In a further test the test system is Fluid Exudation. Put plainly: reverse passive Arthus pleurisy assay, fluid exudation. It counts as in vivo, rat (male Lewis). As to conditions: 1 hour prior to anti-BSA, standard drugs; for ED30 Fluid Exudation: p.o.; for ED30: Rattus norvegicus, po. The procedure: as §1, §2, §4
A further test has as its system Cellular Influx. In words: reverse passive Arthus pleurisy assay, cellular influx. It counts as in vivo, rat (male Lewis). The following applies: Rattus norvegicus, po, 4 h, 1 hour prior to anti-BSA; standard drugs. As to the method: as §1, §2, §4
The test system of test [1] is LTB4 synthesis by rat glycogen-elicited polymorphonuclear leukocytes (PMN). In words: inhibition of LTB4 synthesis by rat glycogen-elicited polymorphonuclear leukocytes (PMN). It counts as cell-based, rat (female Wistar). As to conditions: Leukocyte. An excerpt:
This is especially true with respect to 5,12-diHETE, which is also denoted as LTB4 [see Ford-Hitchinson, J. Roy. […] Med., 74, 831 (1981)]. Compounds which inhibit the PLA2 -mediated release of arachidonic acid thereby effectively prevent the oxidation of arachidonic acid to the various leukotriene products via the lipoxygenase cascade. Accordingly, the specificity of action of PLA2 inhibitors can be determined by the activity of test compounds in this assay, which measures the ability of compounds to inhibit the synthesis of LTB4 by rat glycogen-elicited polymorphonuclear leukocytes (PMN) in the presence of exogenous substrate.
The assay is carried out as follows:
(§5) Rat polymorphonuclear leukocytes (PMNs) are obtained from female Wistar rats (150-200 g) which receive an injection of 6% glycogen (10 ml i.p.). Rats are sacrificed 18-24 hours post injection by CO2 asphyxiation and the elicited cells are harvested by peritoneal lavage using physiological saline (0.9% NaCl). The exudate is centrifuged at 400 xg for 10 minutes. The supernatant fluid is discarded and the cell pellet is resuspended to a concentration of 2.0×10^7 cells/mL in HBSS containing Ca^++ and Mg^++ and 10 μM L-cysteine.
(§6) To 1 mL aliquots of cell suspension, test drugs or vehicle are added, then preincubated at 37° C. for 10 minutes. A23187 (1 μM), [^3 H]-AA (3.0 μCi/mL) and unlabeled AA (1 μM) are then added and the samples are further incubated for 10 minutes. The reaction is terminated by centrifugation and pelleting cells. Supernatants are then analyzed by HPLC analysis on a 15 cm×4.6 mm ID supelcosil LC-18 (Supelco)(3M) column, using a two solvent system at a flow rate of 1.4 mL total flow as follows:
Gradient: (system is equilibrated with Solvent A)
Percent solvent changes are accomplished in a linear fashion.
Injections: 140 μL of each supernatant is injected directly onto column and ^3 H arachidonic acid metabolites are monitored using an on-line radioactivity detector (Ramona, IN/US, Fairfield, N.J.).
Standards: 10^4 -2.0×10^4 dpm of eicosanoids of interest are injected in 90 μL EtOH cocktail.
Results are expressed as percent inhibition at a given compound dose or as an IC50 value.

Test [2] relates to PGE2 synthesis by rat glycogen-elicited polymorphonuclear leukocytes (cyclooxygenase). In words: inhibition of PGE2 (cyclooxygenase product) synthesis by rat glycogen-elicited polymorphonuclear leukocytes. Type of test: cell-based, rat (female Wistar). As to conditions: Leukocyte; for inhibition at 0.5 µM: read-out: % Inhibition (PGE2 synthesis). The procedure: as §5, §6
In this assay, the procedure of Example 14 is carried out as described. However, in order to determine cyclooxygenase activity, the samples are cochromatographed with authentic reference [^3 H]-PGE2.

The next test deals with T1, Human Synovial PLA2 (Homo sapiens, UniProt P14555).
T1 construct: Purified human synovial fluid; from tissue; host or cells: human synovial fluid (purified)
T1 sequence (P14555 21-144): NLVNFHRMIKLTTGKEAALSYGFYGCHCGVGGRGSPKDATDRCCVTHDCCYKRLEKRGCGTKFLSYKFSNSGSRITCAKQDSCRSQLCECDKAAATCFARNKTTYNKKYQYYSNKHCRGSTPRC
Put plainly: in vitro isolated phospholipase A2 assay, human synovial fluid PLA2. As to conditions: read-out: % Inhibition at 10 μM HSF. Type of test: biochemical. The procedure: The compounds of the invention are tested in an in vitro isolated phospholipase A2 assay to determine the ability of the test compounds to inhibit the release of arachidonic acid from an arachidonic acid-containing substrate by the action of phospholipase A2 enzyme from human and non-human sources.
Into a 15 mL polypropylene tube are added the following:
^ 6 Two human PLA2 enzymes are used:
b) Purified human synovial fluid.
Incubate the 100 μL reaction mixture for 10 minutes at 37° C. in a shaking water bath. The reaction is terminated by the addition of 2 mL tetrahydrofuran, followed by vortexing. NH2 columns (100 μg/mL--Analytichem International) are conditioned with 0.5 mL tetrahydrofuran followed by 0.5 mL tetrahydrofuran/water (2 mL:0.1 mL, v/v).
The sample is loaded onto the columns and slowly drawn through them. The hydrolyzed arachidonic acid retained in the columns is eluted therefrom with 1 mL tetrahydrofuran/glacial acetic acid (2%). The arachidonic acid is transferred to scintillation vials and quantitated by β-counting analysis. A "total counts" sample is prepared by pipetting 25 μL ^3 H-arachidonate E. coli directly into a scintillation vial to which is added 1 mL tetrahydrofuran. 10 mL aquasol (scintillation cocktail) is added to all samples.

[3] abbreviates: p.o., 1 hour prior to anti-BSA, standard drugs.
[4] abbreviates: at 0.5 μM, negative values denote potentiation of cyclooxygenase.
The mark [5] stands for this setting: at 10 μM, human synovial fluid, negative values denote potentiation of HSF.
The mark [6] stands for this setting: negative values denote potentiation of cyclooxygenase.

The structures appear in SMILES notation. Read-outs that look alike come from different tables or passages of the source.

Regarding `CN=C1CCN(c2cccc(C(F)(F)F)c2)N1` [BW540C], the “ED50 LTB4” value in the test with LTB4 (setting [3]) amounted to 30 mg/kg p.o. Moreover, in the test on TxB2 (setting [3]), the “ED50 TxB2” value is recorded as 19 mg/kg p.o.

Consider `C[C@@H]1C[C@H]2[C@@H]3CCC4=CC(=O)C=C[C@]4(C)[C@@]3(F)[C@@H](O)C[C@]2(C)[C@@]1(O)C(=O)CO` [Dexamethasone], for which the “ED30 Fluid Exudation” value with Fluid Exudation amounted to 0.05 mg/kg p.o. The compound also gave an ED30 in the test on Cellular Influx of 0.13 mg/kg.

In the case of `O=C(O)Cc1ccccc1Nc1c(Cl)cccc1Cl` [Diclofenac], in the test on TxB2, the ED50 came out at 6 mg/kg.

On to `CC(=O)c1ccc(-c2ccc(OCc3ccc4ccccc4n3)cc2)c([N+](=O)[O-])c1` [Example 1, 1-[2-Nitro-4'-(2-quinolinylmethoxy)-[1,1'-biphenyl]4-yl]ethanone], for which the inhibition at 0.5 µM in test [1] was 95%; in test [2] (setting [4]), -13%.

With `O=C(O)Cc1ccc(-c2ccc(OCc3ccc4ccccc4n3)cc2)c(F)c1` [Example 2, 2-Fluoro-4'-(2-quinolinylmethyoxy)-[1,1'-biphenyl]-4-acetic acid], the inhibition at 0.5 µM is 91% in test [1] and -22% in test [2].

On to `O=C(O)Cc1cccc(C(=O)c2ccc(OCc3ccc4ccccc4n3)cc2)c1` [Example 3, 3-[4-(2-Quinolinylmethoxy)benzoyl]benzene acetic acid], for which the inhibition at 10 µM at Human Synovial PLA2 (setting [5]) is 25.5%; in test [1], 87%; in test [2] (setting [6]), 8%. In addition, the inhibition at 0.5 µM in test [1] is 38%; in test [2] (setting [4]) it was -8%.

In the case of `O=C(O)Cc1cccc(C(=O)c2ccc(OCc3ccc4ccccc4c3)cc2)c1` [Example 4, 3-[4-(2-Naphthalenylmethoxy)benzoyl]benzene acetic acid], the inhibition at 10 µM on Human Synovial PLA2 (setting [5]) is 15.1%; in test [1], 8%; in test [2] (setting [6]) it was -31%.

Consider `O=C(O)CCc1nc(-c2ccc(OCc3ccc4ccccc4c3)cc2)c(-c2ccccc2)o1` [Example 6, 4-[4-[2-Naphthalenylmethoxy]phenyl]-5-phenyl-2-oxazole propanoic acid], for which the results for the inhibition at 0.5 µM in test [1] and in test [2] were 81% and -12%, respectively. The inhibition at 10 µM in test [1] is 95%; in test [2] (setting [6]), -191%.

`COC(=O)CCc1nc(-c2ccc(OCc3ccc4ccccc4c3)cc2)c(-c2ccccc2)o1` [Example 6A, 4-[4-[2-Naphthalenylmethoxy]phenyl]-5-phenyl-2-oxazole propanoic acid methylester]: the results for the inhibition at 0.5 µM in test [1] and in test [2] (setting [4]) were 63% and -29%, respectively. Further, the results for the inhibition at 10 µM in test [1] and in test [2] (setting [6]) were 94% and -79%, respectively.

In the case of `Cn1c(COc2ccc(-c3nc(CCC(=O)O)oc3-c3ccccc3)cc2)nc2ccccc21` [Example 7, 4-[4-[(1-Methyl-1H-benzimidazol-2-yl)methoxy]phenyl]-5-phenyl-2-oxazole propanoic acid], in test [1], the inhibition at 10 µM came to 85%.

`O=C(O)Cc1ccc(-c2ccc(OCc3ccc4ccccc4n3)cc2)c(F)c1` [Example 9, 2-Fluoro-4'-(2-quinolinylmethoxy)[1,1'-biphenyl]-4-acetic acid, 2-amino-2-hydroxymethyl-1,3-propane diol]: the ED50 in the test with LTB4 (reverse passive Arthus pleurisy, oral, read-out: ED50 (LTB4 Synthesis)) was found to be 0.8 mg/kg.

Take `COc1ccc2cc([C@H](C)C(=O)O)ccc2c1` [Naproxen]: in the test on Fluid Exudation, the “ED30 Fluid Exudation” value amounted to 3.9 mg/kg p.o. In the test on LTB4 (4 mg/kg p.o.), the “% Inh LTB4” value stood at 0%. The “ED50 TxB2” value with TxB2 (setting [3]) is listed as 0.24 mg/kg p.o.

Turning to `O=C1CCN(c2ccccc2)N1` [Phenidone], the ED30 in the test with Fluid Exudation turned out to be 21 mg/kg; in the test with Cellular Influx, 23 mg/kg. Besides, the ED50 in the test with LTB4 (po, 1 hour prior to anti-BSA, standard drugs, read-out: ED50 LTB4) was 10 mg/kg; in the test with TxB2 (setting [3]), 69 mg/kg.

On to `CN1C(C(=O)Nc2ccccn2)=C(O)c2ccccc2S1(=O)=O` [Piroxicam], for which the ED30 in the test on Fluid Exudation came to 1 mg/kg; in the test on Cellular Influx, 3 mg/kg.

Take `C[C@H](C(=O)O)c1ccc2cc(OCc3ccc4ccccc4n3)ccc2c1.NC(CO)(CO)CO` [Wy-50,295-A]: the “% Inh TxB2” value in the test with TxB2 (75 mg/kg p.o.) is listed as 0%.

`CC(C(=O)O)c1cccc(C(=O)c2ccccc2)c1` (stereo not drawn) [ketoprofen]: at Human Synovial PLA2, the inhibition at 10 µM was -16.9%. The ED50 in the test with TxB2 is 0.18 mg/kg.
